This note sets out measurements from patent publication US20060128763A1 (priority 2003, published 2006).

For series [1] the following is noted: DSC scan, FIGS. 3 and 4.
A further series in a line: physchem. The conditions noted are these: water, thermodynamic from solid. Here is the method: The measurement was performed according to the procedure described in the Korean Pharmacopoeia (Korean Ministry of Health and Welfare, General principle of medical supplies, Vol. 1, Clause 29, the 7th revision) which comprises the steps of dissolving each compound in distilled water to saturation, analyzing the saturated solution with liquid chromatography, and measuring the dissolved amount of each compound based on the amount of amlodipine.

As for `CC1(C)[C@@H]2CC[C@@]1(CS(=O)(=O)O)C(=O)C2.CCOC(=O)C1=C(COCCN)NC(C)=C(C(=O)OC)C1c1ccccc1Cl` (centres unmarked) [Amorphous amlodipine camsylate, amorphous amlodipine camsylate], the “thermodynamic stability (DSC absorption peak temperature compared with the crystalline form)” value in series [1] was “sufficient thermodynamic stability”. In “physchem”, `CCOC(=O)C1=C(COCCN)NC(C)=C(C(=O)OC)C1c1ccccc1Cl` (centres unmarked) [Crystalline amlodipine besylate, amlodipine benzenesulfonate] came in with a solubility of 2350 µg/mL.
